Experimental data: DBAASP
Values after ≈ are worked out from the molar mass of the structure shown. Values joined by “and” are separate entries in the source; they are usually repeats but may differ in a detail not shown here. Equal entries are not always repeated.

Tests used:
Assay in all cases: ≥ marks a high value that may be exact or a test limit, other limits are often not marked, values filed in µg/mL are converted to µM
[1] = system: Klebsiella pneumoniae ATCC 700603
[2] = system: Pseudomonas aeruginosa ATCC 9027
Acinetobacter baumannii = system: Acinetobacter baumannii
[3] = system: Staphylococcus aureus ATCC 25923
[4] = system: Escherichia coli ATCC 25922
Escherichia coli UB1005 = system: Escherichia coli UB1005
[5] = system: Pseudomonas aeruginosa PAO1
[6] = system: Escherichia coli KCTC 1682
[7] = system: Bacillus subtilis KCTC 3068
[8] = system: Staphylococcus aureus KCTC 1621
[9] = system: Salmonella typhimurium KCTC 1926
[10] = system: Staphylococcus epidermidis KCTC 1917
[11] = system: Pseudomonas aeruginosa KCTC 1637
Staphylococcus aureus = system: Staphylococcus aureus
Escherichia coli = system: Escherichia coli
Candida albicans = system: Candida albicans
[12] = system: Bacillus subtilis ATCC 6633
Klebsiella pneumoniae = system: Klebsiella pneumoniae
[13] = system: Klebsiella pneumoniae ATCC 13883
[14] = system: Pseudomonas aeruginosa ATCC 27853
[15] = system: Salmonella enterica subsp. enterica serovar Typhimurium ATCC 14028

**Q.** How did the MIC [1] turn out when `CC[C@H](C)[C@H](NC(=O)[C@H](CC(C)C)NC(=O)[C@H](CCCCN)NC(=O)[C@@H](NC(=O)[C@H](CC(C)C)NC(=O)[C@H](CCCN=C(N)N)NC(=O)[C@H](CCCN=C(N)N)NC(=O)[C@@H](NC(=O)[C@H](C)NC(=O)[C@H](CCCCN)NC(=O)[C@H](C)NC(=O)[C@H](CC(C)C)NC(=O)[C@@H](NC(=O)[C@@H](N)CCCN=C(N)N)[C@@H](C)CC)[C@@H](C)O)C(C)C)C(=O)N[C@H](C(=O)N[C@@H](CO)C(=O)NCC(=O)O)C(C)C` [RILAKATRRLVKLIVSG] was run?
**A.** > 25 µM

**Q.** What about the MIC [2] of the same compound?
**A.** > 25 µM

**Q.** What about the MIC (Acinetobacter baumannii) of the same compound?
**A.** 25 µM (≈ 47.4 µg/mL)

**Q.** What about the MIC [3] of the same compound?
**A.** > 25 µM

**Q.** And the MIC [4]?
**A.** > 25 µM

**Q.** `CC[C@H](C)[C@H](NC(=O)[C@H](CCCN=C(N)N)NC(=O)[C@H](CCCN=C(N)N)NC(=O)[C@@H]1CCCN1C(=O)[C@H](Cc1c[nH]c2ccccc12)NC(=O)[C@H](CCCN=C(N)N)NC(=O)[C@@H]1CCCN1C(=O)[C@H](CCCN=C(N)N)NC(=O)[C@@H]1CCCN1C(=O)[C@H](CC(C)C)NC(=O)[C@H](Cc1ccc(O)cc1)NC(=O)[C@@H]1CCCN1C(=O)[C@@H]1CCCN1C(=O)[C@H](CCCCN)NC(=O)[C@H](CC(=O)O)NC(=O)[C@@H](N)C(C)C)C(=O)N[C@@H](Cc1ccc(O)cc1)C(=O)N[C@@H](CC(N)=O)C(=O)N[C@@H](CCCN=C(N)N)C(N)=O` [VDKPPYLPRPRWPRRIYNR] was tested. Which MIC (Escherichia coli UB1005) did it give?
**A.** 1.01 µM (≈ 2.5 µg/mL)

**Q.** What about the MIC [3] of the same compound?
**A.** 6.45 µM (≈ 16 µg/mL)

**Q.** What about the MIC [5] of the same compound?
**A.** 12.9 µM (≈ 32 µg/mL)

**Q.** Which results are given for `CC[C@H](C)[C@H](NC(=O)[C@H](C)NC(=O)[C@H](CCCN=C(N)N)NC(=O)[C@H](Cc1ccccc1)NC(=O)[C@@H](NC(=O)[C@H](Cc1cnc[nH]1)NC(=O)[C@H](Cc1cnc[nH]1)NC(=O)[C@H](Cc1ccccc1)NC(=O)[C@@H](N)Cc1ccccc1)[C@@H](C)CC)C(=O)N[C@H](C(=O)N[C@@H](Cc1cnc[nH]1)C(=O)N[C@H](C(=O)NCC(=O)N[C@@H](CCCCN)C(=O)N[C@H](C(=O)N[C@H](C(=O)N[C@@H](Cc1cnc[nH]1)C(=O)N[C@@H](CCCN=C(N)N)C(=O)N[C@@H](CC(C)C)C(=O)N[C@H](C(=O)N[C@H](C(=O)NCC(=O)O)[C@@H](C)O)C(C)C)[C@@H](C)CC)[C@@H](C)O)C(C)C)C(C)C` [FFHHIFRAIVHVGKTIHRLVTG]?
**A.** MIC [6]: 2 µM (≈ 5.17 µg/mL); MIC [7]: 2 µM (≈ 5.17 µg/mL); MIC [8]: 2 µM (≈ 5.17 µg/mL); MIC [9]: 1 µM (≈ 2.59 µg/mL); MIC [10]: 1 µM (≈ 2.59 µg/mL); MIC [11]: 4 µM (≈ 10.3 µg/mL)

**Q.** What does the source list for `CC[C@H](C)[C@H](NC(=O)[C@H](CCCCN)NC(=O)[C@@H](N)CS)C(=O)N[C@@H](CC(N)=O)C(=O)N[C@@H](CCCCN)C(=O)N[C@@H](CCC(N)=O)C(=O)N[C@@H](CS)C(=O)O` [CKINKQC]?
**A.** MIC (Staphylococcus aureus): > 200 µM; MIC (Escherichia coli): > 200 µM; MIC (Candida albicans): > 200 µM

**Q.** With `CC[C@H](C)[C@H](NC(=O)[C@H](CCCN=C(N)N)NC(=O)[C@@H](NC(=O)[C@@H]1CCCN1C(=O)[C@H](CCCN=C(N)N)NC(=O)[C@@H](NC(=O)[C@@H]1CCCN1C(=O)[C@H](CCCN=C(N)N)NC(=O)[C@H](CC(C)C)NC(=O)CNC(=O)[C@H](Cc1cnc[nH]1)NC(=O)[C@@H]1CCCN1C(=O)CNC(=O)[C@H](CC(C)C)NC(=O)[C@H](CC(N)=O)NC(=O)[C@H](Cc1c[nH]c2ccccc12)NC(=O)[C@H](C)NC(=O)[C@@H](NC(=O)[C@H](C)N)[C@@H](C)O)[C@@H](C)CC)[C@@H](C)CC)C(=O)N[C@@H](CCCN=C(N)N)C(=O)N1CCC[C@H]1C(=O)N[C@@H](CC(C)C)C(=O)N[C@@H](CS)C(=O)NCC(=O)N[C@@H](CCCCN)C(=O)N[C@@H](CC(=O)O)C(=O)N[C@@H](CCCCN)C(=O)N[C@@H](CO)C(=O)O` [ATAWNLGPHGLRPIRPIRIRPLCGKDKS] as the compound, how does the MIC [12] read?
**A.** ≥ 100 µM

**Q.** Which results are given for `CC(C)C[C@H](NC(=O)[C@H](C)NC(=O)[C@H](CCCN=C(N)N)NC(=O)[C@H](C)NC(=O)[C@H](Cc1c[nH]c2ccccc12)NC(=O)CNC(=O)[C@H](CCCN=C(N)N)NC(=O)[C@@H](N)CCCN=C(N)N)C(=O)N[C@@H](C)C(=O)N[C@@H](Cc1ccccc1)C(=O)N[C@@H](C)C(=O)N[C@@H](Cc1ccccc1)C(=O)NCC(=O)N[C@@H](CCCN=C(N)N)C(N)=O` [RRGWARALAFAFGR]?
**A.** MIC (Klebsiella pneumoniae): 1.9 µM (≈ 3.1 µg/mL); MIC (Acinetobacter baumannii): 1.8 µM (≈ 2.94 µg/mL); MIC [3]: > 30 µM; MIC [13]: 14.8 µM and 30 µM; MIC [4]: 6.6 µM and 15.5 µM

**Q.** Which MIC [12] does the source give for `CC(C)C[C@H](NC(=O)CNC(=O)[C@H](C)NC(=O)[C@@H](NC(=O)[C@H](CCCN=C(N)N)NC(=O)[C@H](CCCN=C(N)N)NC(=O)[C@H](CC(C)C)NC(=O)[C@@H](N)CC(C)C)C(C)C)C(=O)N[C@@H](CC(C)C)C(=O)N[C@@H](CCCCN)C(=O)N[C@@H](CCC(N)=O)C(=O)N[C@@H](Cc1ccccc1)C(=O)N[C@@H](C)C(=O)N[C@@H](CCCCN)C(=O)O` [LLRRVAGLLKQFAK] here?
**A.** 9.92 µM (≈ 16 µg/mL)

**Q.** What about the MIC [3] of the same compound?
**A.** 9.92 µM (≈ 16 µg/mL)

**Q.** What about the MIC [4] of the same compound?
**A.** 2.48 µM (≈ 4 µg/mL)

**Q.** What about the MIC [14] of the same compound?
**A.** 4.96 µM (≈ 8 µg/mL)

**Q.** `CC(C)C[C@H](NC(=O)[C@H](CCCN=C(N)N)NC(=O)[C@H](CCCN=C(N)N)NC(=O)[C@H](C)NC(=O)[C@H](Cc1c[nH]c2ccccc12)NC(=O)CNC(=O)[C@H](CCCN=C(N)N)NC(=O)[C@@H](N)CCCN=C(N)N)C(=O)N[C@@H](Cc1ccccc1)C(=O)N[C@@H](C)C(=O)N[C@@H](C)C(=O)N[C@@H](Cc1ccccc1)C(=O)NCC(=O)N[C@@H](CCCN=C(N)N)C(=O)N[C@@H](CCCN=C(N)N)C(N)=O` [RRGWARRLFAAFGRR] was tested. Which MIC [15] did it give?
**A.** 10.6 µM and 30 µM

**Q.** What about the MIC (Klebsiella pneumoniae) of the same compound?
**A.** 1.8 µM (≈ 3.38 µg/mL)

**Q.** And the MIC (Acinetobacter baumannii)?
**A.** 4.8 µM (≈ 9 µg/mL)

**Q.** And the MIC [3]?
**A.** > 30 µM

**Q.** And the MIC [13]?
**A.** 30 µM (≈ 56.3 µg/mL)

**Q.** What about the MIC [4] of the same compound?
**A.** 11.5 µM and 30 µM

**Q.** With `CC[C@H](C)[C@H](NC(=O)[C@@H](NC(=O)[C@@H]1CCCN1C(=O)[C@@H](NC(=O)[C@@H]1CCCN1C(=O)[C@H](CCCCN)NC(=O)[C@H](CCCCN)NC(=O)[C@H](CO)NC(=O)CN)C(C)C)[C@@H](C)CC)C(=O)N[C@@H](Cc1ccc(O)cc1)C(=O)N[C@H]1CSSC[C@@H](C(=O)N[C@@H](CCC(N)=O)C(=O)N[C@@H](CCCN=C(N)N)C(=O)N[C@@H](CCSC)C(=O)O)NC(=O)[C@H](CCCCN)NC(=O)[C@H](C)NC(=O)[C@H]([C@@H](C)O)NC(=O)[C@H](CCCN=C(N)N)NC(=O)[C@H](CCCN=C(N)N)NC(=O)[C@H](CCC(N)=O)NC1=O` [GSKKPVPIIYCQRRTAKCQRM] as the compound, how does the MIC [1] read?
**A.** 13 µM (≈ 32 µg/mL)

**Q.** What about the MIC [4] of the same compound?
**A.** 13 µM (≈ 32 µg/mL)

**Q.** `CC[C@H](C)[C@H](NC(=O)CNC(=O)[C@H](CC(N)=O)NC(=O)[C@@H](NC(=O)[C@H](C)NC(=O)[C@H](CC(N)=O)NC(=O)[C@H](CC(C)C)NC(=O)[C@H](C)NC(=O)[C@H](C)NC(=O)[C@H](CCCN=C(N)N)NC(=O)CNC(=O)[C@H](C)NC(=O)[C@H](C)NC(=O)[C@H](C)NC(=O)[C@H](C)NC(=O)[C@H](CCSC)NC(=O)[C@H](CC(=O)O)NC(=O)[C@H](CCCCN)NC(=O)[C@@H](NC(=O)[C@H](CO)NC(=O)[C@H](CO)NC(=O)[C@H](Cc1c[nH]c2ccccc12)NC(=O)[C@H](CC(C)C)NC(=O)[C@@H](N)CO)[C@@H](C)CC)C(C)C)C(=O)N[C@@H](CC(C)C)C(=O)N[C@@H](CC(N)=O)C(=O)N1CCC[C@H]1C(N)=O` [SLWSSIKDMAAAAGRAALNAVNGILNP] was tested. Which MIC (Klebsiella pneumoniae) did it give?
**A.** 189 µM (≈ 512 µg/mL)

**Q.** And the MIC (Candida albicans)?
**A.** > 189 µM

**Q.** What about the MIC [3] of the same compound?
**A.** 189 µM (≈ 512 µg/mL)

**Q.** And the MIC [4]?
**A.** 47.2 µM (≈ 128 µg/mL)

**Q.** How did the MIC (Staphylococcus aureus) turn out when `CSCC[C@H](NC(=O)[C@@H](N)CO)C(=O)N[C@@H](CC(C)C)C(=O)N[C@@H](CO)C(=O)N[C@H](C(=O)N[C@@H](CC(C)C)C(=O)N[C@@H](CCCCN)C(=O)N[C@@H](CC(N)=O)C(=O)N[C@@H](CC(C)C)C(=O)NCC(=O)N[C@@H](CCCCN)C(=O)N[C@H](C(=O)NCC(=O)N[C@@H](CC(C)C)C(=O)NCC(=O)N[C@@H](Cc1ccccc1)C(=O)N[C@H](C(=O)N[C@@H](C)C(=O)O)C(C)C)C(C)C)C(C)C` [SMLSVLKNLGKVGLGFVA] was run?
**A.** > 200 µM

**Q.** What about the MIC (Escherichia coli) of the same compound?
**A.** > 200 µM

**Q.** What about the MIC (Candida albicans) of the same compound?
**A.** > 200 µM

**Q.** With `CC[C@H](C)[C@H](N)C(=O)N[C@@H](Cc1cnc[nH]1)C(=O)N[C@@H](CCCCN)C(=O)N[C@@H](CC(C)C)C(=O)N[C@H](C(=O)N[C@@H](CCCCN)C(=O)N[C@@H](CC(C)C)C(=O)N[C@@H](Cc1c[nH]c2ccccc12)C(=O)N[C@@H](CC(C)C)C(=O)N[C@@H](CC(N)=O)C(=O)N[C@@H](CC(C)C)C(=O)NCC(=O)N[C@@H](CCCCN)C(=O)N[C@@H](CCCCN)C(=O)N[C@@H](Cc1ccccc1)C(=O)O)C(C)C` [IHKLVKLWLNLGKKF] as the compound, how does the MIC [1] read?
**A.** 64 µM (≈ 118 µg/mL)

**Q.** And the MIC [2]?
**A.** > 64 µM

**Q.** What about the MIC (Acinetobacter baumannii) of the same compound?
**A.** ≥ 64 µM

**Q.** And the MIC [3]?
**A.** > 64 µM

**Q.** What about the MIC [4] of the same compound?
**A.** 64 µM (≈ 118 µg/mL)
